These are literature values, as cited in patent US12274730B2, “Flavonoid compositions and methods of use” (Berkley, LLC, priority 2015, dated 2025).

For the series the following is noted: general statement, no test described.

In the case of `O=c1c(O)c(-c2ccc(O)c(O)c2)oc2cc(O)cc(O)c12` [Quercetin, 2-(3,4-dihydroxyphenyl)-3,5,7-trihydroxy-4H-chromen-4-one], the Half-life is 3.5 to 11 h.
